Numbered stars: 1 amine (or outer) side, 2 acyl side, 3 side chain; on linkers, the order of the positions; unused ones are H or OH. Bridge positions count the residues as written; N and C are the ends. Square brackets hold non-standard residues; d marks the D form. Peptide text beside a SMILES is read from it. * marks the point of attachment. hPhe(3-Cl-4-CF3) = N[C@@H](CCc1ccc(C(F)(F)F)c(Cl)c1)C(=O)O; NMePhe(3-CF3) = CN[C@@H](Cc1cccc(C(F)(F)F)c1)C(=O)O; X52 = CN([C@@H](Cc1ccccc1OC(F)(F)F)C(=O)[*:2])[*:1]; NMePhe(2-CF3) = CN[C@@H](Cc1ccccc1C(F)(F)F)C(=O)O; NMePhe(3-Br) = CN[C@@H](Cc1cccc(Br)c1)C(=O)O; NMePhe(3-Cl) = CN[C@@H](Cc1cccc(Cl)c1)C(=O)O; NMePhe(2-Cl) = CN[C@@H](Cc1ccccc1Cl)C(=O)O; NMePhe(2-Me) = CN[C@@H](Cc1ccccc1C)C(=O)O; NMePhe(2-F) = CN[C@@H](Cc1ccccc1F)C(=O)O; NMehPhe = CN[C@@H](CCc1ccccc1)C(=O)O; NMeCha = CN[C@@H](CC1CCCCC1)C(=O)O; NMehLeu = CN[C@@H](CCC(C)C)C(=O)O; NMeF = CN[C@@H](Cc1ccccc1)C(=O)O; NMeD = CN[C@@H](CC(=O)O)C(=O)O; NMeL = CN[C@@H](CC(C)C)C(=O)O; NMeV = CN[C@H](C(=O)O)C(C)C; d(β3hA) = C[C@@H](N)CC(=O)O; NMeA = CN[C@@H](C)C(=O)O; Piperidide = C1CCN(*)CC1; Ac5c = NC1(C(=O)O)CCCC1; Aze = O=C(O)[C@@H]1CCN1; Sar = CNCC(=O)O

This assay relates to Human pancreatic cancer cell line AsPC-1 (G12D mutation Kras). Nature of the assay: AsPC-1 cell growth inhibition (AsPC-1 CGI). Format: cell-based. The note with it: read-out: AsPC-1 cell growth inhibition, 50% growth inhibitory concentration (IC50 value); 96 hours, CellTiter-Glo, values classified in ranges. (In general: ATP-based viability assays read luminescence as a measure of living cells.)
Protocol: Test compounds were serially dilated with dimethyl sulfoxide, and 200 nL was then dispensed to a U-bottom 96-well plate using Labcyte Echo. […] The cell suspension was dispensed to a. plate containing a test compound at 100 μL per well and incubated at 37° C. in a 5% carbon dioxide gas incubator. 96 hours later, 80 μL of CellTiter-Glo (Promega) was added to each well and fluorescence was measured.
As to `CC[C@H](C)[C@@H]1NC(=O)[C@H](CC(C)C)N(C)C(=O)C[C@@H](C)NC(=O)[C@H](C(C)C)N(C)C(=O)C2(CCCC2)NC(=O)[C@@H]2CCCN2C(=O)[C@H](CCc2ccc(C(F)(F)F)c(Cl)c2)NC(=O)CN(C)C(=O)[C@H](Cc2cccc(C(F)(F)F)c2)N(C)C(=O)CN(C)C(=O)CN(C)C1=O` [Compound 1575] (cyclo([Ac5c][NMeV][d(β3hA)][NMeL]I[Sar][Sar][NMePhe(3-CF3)][Sar][hPhe(3-Cl-4-CF3)]P)), the IC50 is more than 0.5 µM.

With `CC[C@H](C)[C@@H]1NC(=O)[C@H](C)N(C)C(=O)C[C@@H](C)NC(=O)[C@H](C(C)C)N(C)C(=O)C2(CCCC2)NC(=O)[C@@H]2CCCN2C(=O)[C@H](CCc2ccc(C(F)(F)F)c(Cl)c2)NC(=O)CN(C)C(=O)[C@H](CC2CCCCC2)N(C)C(=O)[C@@H]2CCN2C(=O)[C@H](C)N(C)C1=O` [Compound 1578] (cyclo([Ac5c][NMeV][d(β3hA)][NMeA]I[NMeA][Aze][NMeCha][Sar][hPhe(3-Cl-4-CF3)]P)), the IC50 is more than 0.5 µM.

In the case of `CC[C@H](C)[C@@H]1NC(=O)[C@H](C)N(C)C(=O)C[C@@H](C(=O)N2CCCCC2)N(C)C(=O)[C@H](C(C)C)N(C)C(=O)C2(CCCC2)NC(=O)[C@@H]2CCCN2C(=O)[C@H](CCc2ccc(C(F)(F)F)c(Cl)c2)NC(=O)CN(C)C(=O)[C@H](CC2CCCCC2)N(C)C(=O)[C@@H]2CCN2C(=O)[C@H](CC2CCCCC2)N(C)C1=O` [Compound 1580] ([NMeA]I[NMeCha][Aze][NMeCha][Sar][hPhe(3-Cl-4-CF3)]P[Ac5c][NMeV][NMeD]-Piperidide; lactam N-11), the IC50 was more than 0.5 µM.

As to `CC[C@H](C)[C@@H]1NC(=O)[C@H](CC(C)C)N(C)C(=O)C[C@@H](C)NC(=O)[C@H](C(C)C)N(C)C(=O)C2(CCCC2)NC(=O)[C@@H]2CCCN2C(=O)[C@H](CCc2ccc(C(F)(F)F)c(Cl)c2)NC(=O)CN(C)C(=O)[C@H](COc2ccccc2Cl)N(C)C(=O)CN(C)C(=O)CN(C)C1=O` [Compound 1582], the IC50 is more than 0.5 µM.

On to `CC[C@H](C)[C@@H]1NC(=O)[C@H](CC(C)C)N(C)C(=O)C[C@@H](C)NC(=O)[C@H](C(C)C)N(C)C(=O)C2(CCCC2)NC(=O)[C@@H]2CCCN2C(=O)[C@H](CCc2ccc(C(F)(F)F)c(Cl)c2)NC(=O)CN(C)C(=O)[C@H](Cc2ccccc2F)N(C)C(=O)CN(C)C(=O)CN(C)C1=O` [Compound 1585] (cyclo([Ac5c][NMeV][d(β3hA)][NMeL]I[Sar][Sar][NMePhe(2-F)][Sar][hPhe(3-Cl-4-CF3)]P)), for which the IC50 was more than 0.5 µM.

As for `CC[C@H](C)[C@@H]1NC(=O)[C@H](CC(C)C)N(C)C(=O)C[C@@H](C)NC(=O)[C@H](C(C)C)N(C)C(=O)C2(CCCC2)NC(=O)[C@@H]2CCCN2C(=O)[C@H](CCc2ccc(C(F)(F)F)c(Cl)c2)NC(=O)CN(C)C(=O)[C@H](Cc2cccc(Br)c2)N(C)C(=O)CN(C)C(=O)CN(C)C1=O` [Compound 1587] (cyclo([Ac5c][NMeV][d(β3hA)][NMeL]I[Sar][Sar][NMePhe(3-Br)][Sar][hPhe(3-Cl-4-CF3)]P)), the IC50 was more than 0.5 µM.

For the molecule `CC[C@H](C)[C@@H]1NC(=O)[C@H](CC(C)C)N(C)C(=O)C[C@@H](C)NC(=O)[C@H](C(C)C)N(C)C(=O)C2(CCCC2)NC(=O)[C@@H]2CCCN2C(=O)[C@H](CCc2ccc(C(F)(F)F)c(Cl)c2)NC(=O)CN(C)C(=O)[C@H](Cc2ccccc2Cl)N(C)C(=O)CN(C)C(=O)CN(C)C1=O` [Compound 1591] (cyclo([Ac5c][NMeV][d(β3hA)][NMeL]I[Sar][Sar][NMePhe(2-Cl)][Sar][hPhe(3-Cl-4-CF3)]P)), the IC50 is more than 0.5 µM.

As for `CC[C@H](C)[C@@H]1NC(=O)[C@H](C)N(C)C(=O)C[C@@H](C(=O)N2CCCCC2)N(C)C(=O)[C@H](C(C)C)N(C)C(=O)C2(CCCC2)NC(=O)[C@@H]2CCCN2C(=O)[C@H](CCc2ccc(C(F)(F)F)c(Cl)c2)NC(=O)CN(C)C(=O)[C@H](CC2CCCCC2)N(C)C(=O)[C@@H]2CCN2C(=O)[C@H](CCC(C)C)N(C)C1=O` [Compound 1595] ([NMeA]I[NMehLeu][Aze][NMeCha][Sar][hPhe(3-Cl-4-CF3)]P[Ac5c][NMeV][NMeD]-Piperidide; lactam N-11), the IC50 is more than 0.5 µM.

On to `CC[C@H](C)[C@@H]1NC(=O)[C@H](CC(C)C)N(C)C(=O)C[C@@H](C)NC(=O)[C@H](C(C)C)N(C)C(=O)C2(CCCC2)NC(=O)[C@@H]2CCCN2C(=O)[C@H](CCc2ccc(C(F)(F)F)c(Cl)c2)NC(=O)CN(C)C(=O)[C@H](Cc2ccccc2)N(C)C(=O)CN(C)C(=O)CN(C)C1=O` [Compound 1606] (cyclo([Ac5c][NMeV][d(β3hA)][NMeL]I[Sar][Sar][NMeF][Sar][hPhe(3-Cl-4-CF3)]P)), for which the IC50 was more than 0.5 µM.

As for `CC[C@H](C)[C@@H]1NC(=O)[C@H](CC(C)C)N(C)C(=O)C[C@@H](C)NC(=O)[C@H](C(C)C)N(C)C(=O)C2(CCCC2)NC(=O)[C@@H]2CCCN2C(=O)[C@H](CCc2ccc(C(F)(F)F)c(Cl)c2)NC(=O)CN(C)C(=O)[C@H](Cc2ccccc2C(F)(F)F)N(C)C(=O)CN(C)C(=O)CN(C)C1=O` [Compound 1613] (cyclo([Ac5c][NMeV][d(β3hA)][NMeL]I[Sar][Sar][NMePhe(2-CF3)][Sar][hPhe(3-Cl-4-CF3)]P)), the IC50 was more than 0.5 µM.

In the case of `CC[C@H](C)[C@@H]1NC(=O)[C@H](CC(C)C)N(C)C(=O)C[C@@H](C)NC(=O)[C@H](C(C)C)N(C)C(=O)C2(CCCC2)NC(=O)[C@@H]2CCCN2C(=O)[C@H](CCc2ccc(C(F)(F)F)c(Cl)c2)NC(=O)CN(C)C(=O)[C@H](Cc2ccccc2C)N(C)C(=O)CN(C)C(=O)CN(C)C1=O` [Compound 1614] (cyclo([Ac5c][NMeV][d(β3hA)][NMeL]I[Sar][Sar][NMePhe(2-Me)][Sar][hPhe(3-Cl-4-CF3)]P)), the IC50 is more than 0.5 µM.

In the case of `CC[C@H](C)[C@@H]1NC(=O)[C@H](CC(C)C)N(C)C(=O)C[C@@H](C)NC(=O)[C@H](C(C)C)N(C)C(=O)C2(CCCC2)NC(=O)[C@@H]2CCCN2C(=O)[C@H](CCc2ccc(C(F)(F)F)c(Cl)c2)NC(=O)CN(C)C(=O)[C@H](Cc2cccc(Cl)c2)N(C)C(=O)CN(C)C(=O)CN(C)C1=O` [Compound 1623] (cyclo([Ac5c][NMeV][d(β3hA)][NMeL]I[Sar][Sar][NMePhe(3-Cl)][Sar][hPhe(3-Cl-4-CF3)]P)), the IC50 was more than 0.5 µM.

As for `CC[C@H](C)[C@@H]1NC(=O)[C@H](CC(C)C)N(C)C(=O)C[C@@H](C)NC(=O)[C@H](C(C)C)N(C)C(=O)C2(CCCC2)NC(=O)[C@@H]2CCCN2C(=O)[C@H](CCc2ccc(C(F)(F)F)c(Cl)c2)NC(=O)CN(C)C(=O)[C@H](CCc2ccccc2)N(C)C(=O)CN(C)C(=O)CN(C)C1=O` [Compound 1627] (cyclo([Ac5c][NMeV][d(β3hA)][NMeL]I[Sar][Sar][NMehPhe][Sar][hPhe(3-Cl-4-CF3)]P)), the IC50 is more than 0.5 µM.

Turning to `CC[C@H](C)[C@@H]1NC(=O)[C@H](CC(C)C)N(C)C(=O)C[C@@H](C)NC(=O)[C@H](C(C)C)N(C)C(=O)C2(CCCC2)NC(=O)[C@@H]2CCCN2C(=O)[C@H](CCc2ccc(C(F)(F)F)c(Cl)c2)NC(=O)CN(C)C(=O)[C@H](Cc2ccccc2OC(F)(F)F)N(C)C(=O)CN(C)C(=O)CN(C)C1=O` [Compound 1635] (cyclo([Ac5c][NMeV][d(β3hA)][NMeL]I[Sar][Sar][X52][Sar][hPhe(3-Cl-4-CF3)]P)), the IC50 was more than 0.5 µM.
